Assay results taken from the supplement of paper PMC13380429.

Columns and labels:
Conditions in all cases: 72 h
U2OS [1] = assay: drug sensitivity score (DSS) for viability; higher = more toxic; extreme values may be limits of the assay
Vero E6 [2] = assay: as above
Calu-3 [3] = assay: as above
Caco-2 [4] = assay: as above
HepG2 [5] = assay: as above
Calu-3 [6] = assay: relative viability EC50 (midpoint between 100% and the lowest measured viability); higher = less toxic
U2OS [7] = assay: cell viability relative to DMSO; higher = less toxic
Vero E6 [8] = assay: as above
Calu-3 [9] = assay: as above
Caco-2 [10] = assay: as above
HepG2 [11] = assay: as above
U2OS [12] = assay: relative viability EC50 (midpoint between 100% and the lowest measured viability); higher = less toxic
Vero E6 [13] = assay: as above
HepG2 [14] = assay: as above

Row | Compound | drug sensitivity score (U2OS [1]) | drug sensitivity score (Vero E6 [2]) | drug sensitivity score (Calu-3 [3]) | drug sensitivity score (Caco-2 [4]) | drug sensitivity score (HepG2 [5]) | relative viability EC50 (Calu-3 [6]) | cell viability (U2OS [7]; 1 nM) | cell viability (U2OS [7]; 10 nM) | cell viability (U2OS [7]; 100 nM) | cell viability (U2OS [7]; 1000 nM) | cell viability (U2OS [7]; 10000 nM) | cell viability (Vero E6 [8]; 1 nM) | cell viability (Vero E6 [8]; 10 nM) | cell viability (Vero E6 [8]; 100 nM) | cell viability (Vero E6 [8]; 1000 nM) | cell viability (Vero E6 [8]; 10000 nM) | cell viability (Calu-3 [9]; 1 nM) | cell viability (Calu-3 [9]; 10 nM) | cell viability (Calu-3 [9]; 100 nM) | cell viability (Calu-3 [9]; 1000 nM) | cell viability (Calu-3 [9]; 10000 nM) | cell viability (Caco-2 [10]; 1 nM) | cell viability (Caco-2 [10]; 10 nM) | cell viability (Caco-2 [10]; 100 nM) | cell viability (Caco-2 [10]; 1000 nM) | cell viability (Caco-2 [10]; 10000 nM) | cell viability (HepG2 [11]; 1 nM) | cell viability (HepG2 [11]; 10 nM) | cell viability (HepG2 [11]; 100 nM) | cell viability (HepG2 [11]; 1000 nM) | cell viability (HepG2 [11]; 10000 nM) | relative viability EC50 (U2OS [12]) | relative viability EC50 (Vero E6 [13]) | relative viability EC50 (HepG2 [14])
1 | CN1CCN(c2ccc(Nc3ncc4cc(C#N)c(=O)n(C5CCCC5)c4n3)cc2)CC1 | 1.5 | 2.2 | 0 | 2 | 4.2 | > 10000 nM | 100% | 98% | 102% | 98.3% | 70% | 105% | 107% | 107% | 99.1% | 58.1% | 105% | 103% | 98.9% | 87.9% | 111% | 98% | 93.9% | 101% | 92.3% | 74.9% | 99.8% | 99.7% | 102% | 88.8% | 52.9% |  |  | 
2 | FC(F)(F)c1cc(NC(=S)Nc2ccc(Br)cc2-c2nnn[nH]2)cc(C(F)(F)F)c1 | 0 | 0.3 | 0 | 3.7 | 0.2 | > 10000 nM | 99.9% | 104% | 97.7% | 97.6% | 97.5% | 95.8% | 102% | 93.3% | 102% | 83% | 98.8% | 102% | 101% | 103% | 99.3% | 96.6% | 106% | 95.3% | 88.7% | 57.9% | 99.3% | 92.7% | 98.7% | 90.4% | 85.6% | > 10000 nM | > 10000 nM | > 10000 nM
3 | O=C(c1cn(Cc2cncn2Cc2ccc(Br)cc2)cc1-c1cccc2ccccc12)N1CCOCC1 | 5.5 | 2.9 | 5.6 | 4.3 | 9.8 |  | 97.3% | 99.4% | 90.5% | 80.3% | 39.9% | 99.8% | 97.7% | 95.4% | 88.1% | 64.5% | 104% | 96.7% | 98.6% | 68.1% | 72.1% | 99.1% | 96.1% | 94.4% | 78.1% | 63.5% | 107% | 90.6% | 98.3% | 57.1% | 16.3% | 1490 nM |  | 972 nM
4 | N#C/C(=C\c1ccc(O)c(O)c1)C(=O)NCCCc1ccccc1 [AG-555] | 0 | 0.5 | 0 | 3.4 | 1.7 | > 10000 nM | 99% | 99.5% | 103% | 99.1% | 88.7% | 102% | 102% | 103% | 103% | 79.7% | 112% | 95.2% | 101% | 105% | 88.4% | 96.7% | 100% | 113% | 84.1% | 68.1% | 95.5% | 89.9% | 95.8% | 95.4% | 74.7% | > 10000 nM | > 10000 nM | 
5 | c1cc(Nc2cc(C3CC3)n[nH]2)nc(Nc2ccc3[nH]cnc3c2)n1 [APY-29] | 10.9 | 7 | 11.2 | 1.9 | 16.6 | 337 nM | 95.2% | 102% | 100% | 55.4% | 5.4% | 101% | 94.1% | 93.5% | 86.9% | 13.8% | 98.1% | 100% | 102% | 37.8% | 66.9% | 88.9% | 101% | 94.7% | 94.8% | 72.5% | 96.4% | 94.2% | 93.1% | 14.2% | 5.2% | 1050 nM | 1970 nM | 339 nM
6 | Clc1ccc(C2(c3ccc(-c4cn[nH]c4)cc3)CCNCC2)cc1 [AT7867] | 5.2 | 5.6 | 0.2 | 1.3 | 4.4 | > 10000 nM | 103% | 95.1% | 94.9% | 90.3% | 34.8% | 100% | 97% | 97.5% | 84.9% | 39.8% | 99.7% | 98.7% | 110% | 132% | 79.5% | 103% | 93.3% | 105% | 98.2% | 73.9% | 102% | 101% | 97.6% | 84.9% | 54.2% | 2000 nM | 1550 nM | 
7 | CC(C)(C)c1ccc(NC(=O)N2CCN(c3ncccc3Cl)CC2)cc1 [BCTC] | 0 | 0.5 | 1.1 | 3 | 0 |  | 99.3% | 106% | 97.4% | 101% | 95% | 99% | 101% | 100% | 94.4% | 86.1% | 98.1% | 101% | 99.5% | 102% | 71.2% | 88.8% | 99.6% | 92.8% | 89.9% | 62.2% | 99.3% | 92.7% | 96.7% | 102% | 93.3% | > 10000 nM | > 10000 nM | > 10000 nM
8 | CC(C)CCN1c2nc(Nc3cc(F)c(O)c(F)c3)ncc2N(C)C(=O)[C@@H]1C [BI-D1870] | 1.4 | 6.1 | 3.5 | 1.8 | 2.4 |  | 102% | 103% | 99% | 98.7% | 71.4% | 105% | 98.7% | 96.5% | 86.2% | 30.9% | 96% | 107% | 90.2% | 83.7% | 63.1% | 95.1% | 102% | 97.5% | 96.6% | 71.1% | 105% | 92.8% | 102% | 97.6% | 58.9% |  | 1740 nM | 
9 | Cc1cc(C(=O)Nc2nc3cccc(Cl)c3n2[C@@H]2CCCCN(C(=O)/C=C/CN(C)C)C2)ccn1 [EGF816] | 1 | 6.2 | 10.8 | 2.1 | 4.6 | 512 nM | 101% | 98.9% | 99.3% | 98.4% | 77.3% | 104% | 106% | 102% | 82.1% | 36.8% | 102% | 95.9% | 86.9% | 51.6% | 24.6% | 95.5% | 94.3% | 98.1% | 93.7% | 72.3% | 107% | 100% | 96% | 94.5% | 32.1% | > 10000 nM | 1450 nM | 2500 nM
10 | Nc1ccc2ncnc(NCCc3ccc(Oc4ccccc4)cc3)c2c1 [EVP4593] | 6.3 | 4.4 | 0.3 | 4.3 | 18 | > 10000 nM | 103% | 96.3% | 94.7% | 67.4% | 64.5% | 93.5% | 90.2% | 91.1% | 73.3% | 77% | 106% | 98.9% | 97.7% | 92.1% | 86.5% | 104% | 96.9% | 88% | 78.4% | 74.5% | 109% | 109% | 78.1% | 20.2% | 19.4% |  |  | 149 nM
11 | NC(=S)N/N=C/c1coc2ccccc2c1=O.[Cl][Cu][Cl] [FPA-124] | 0 |  | 0 | 1 | 0 | > 10000 nM | 105% | 99.1% | 101% | 97.3% | 99.8% |  |  |  |  |  | 104% | 103% | 102% | 99% | 106% | 106% | 103% | 96.1% | 104% | 70.4% | 94.5% | 101% | 97.5% | 109% | 95.3% | > 10000 nM |  | > 10000 nM
12 | CCCCOc1ccc(CC/C=C2\SC(=O)N(CCN)C2=O)cc1 [K145] | 0 | 0 | 0 | 1.7 | 0.6 | > 10000 nM | 89.3% | 97.1% | 91.4% | 93.1% | 83.1% | 108% | 103% | 101% | 104% | 92% | 92.1% | 108% | 87.1% | 101% | 92.5% | 97.9% | 106% | 95.1% | 91.2% | 73.9% | 107% | 102% | 95% | 95.4% | 82.7% | > 10000 nM | > 10000 nM | > 10000 nM
13 | Cc1sc2c(c1C)C(c1ccc(Cl)cc1)=N[C@@H](CC(=O)Nc1ccc(O)cc1)c1nnc(C)n1-2 [OTX015] | 8.2 | 16.3 | 4.7 | 4.3 | 11.6 |  | 99.7% | 102% | 89.3% | 62.9% | 38.8% | 97.5% | 92.7% | 84.5% | 21.8% | 8% | 109% | 113% | 108% | 82.3% | 55.9% | 105% | 94.5% | 95.6% | 84.6% | 53.1% | 106% | 110% | 85.1% | 47.4% | 24.9% | 592 nM | 298 nM | 434 nM
